One data set has as its system K562. Nature of the data set: Natural killer activity test on lymphocytes of treated patients. Particulars: same patients and doses, percentage of aspecific lysis of K562. It counts as in vivo. How it is done: (§1) of F.F.001 was investigated in a clinical research on patients affected by chronic bronchial infection. The immunostimulating action was determined through the monitorage of the phagocytary and NK cells activity.
This test consists in the determination of the percentage of aspecific lysis of a human tumoral target, K562, mediated by circulating lymphocytes.
The lymphocytes were isolated by centrifuging heparinized blood at a 1:1 dilution with physiologic solution or with a solution of "Hanks" salts of "Ficol".
After 30 min. of centrifugation at 1000 r.p.m. a band of stratified leucocytes was obtained over the "Ficol" level.
At the same time the K562 were labelled with ^51Cr by adding the radioisotope solution to a suspension containing […] in 0.5 ml of colture medium.
After 45 min. of incubation at 37 degrees C the cells were washed three times with a solution of "Hanks" salts.
The labelled cells were then incubated with leucocytes at 37 degrees C at various ratios for 4 h, after which the percentage of […] release was determined in the supernatant and assumed to be directly proportional to the K562 cell lysis mediated by leucocytes.
(§2) In the groups 1), 3), 4) and 5) the dose of erythromycin was always 1 gram; in the groups 2), 3), 4) and 5) the corresponding dose of inosine was 182 mg.

The test system of another data set is pneumococ bacteria. Nature of the data set: Antibacterial in vivo activity in infected rats. The settings on record: rats infected with LD100 of pneumococ bacteria; orally every twelve hours 25 mg/kg as erythromycin base; 8 days observation. Also noted: species or system Sprague-Dawley rats. How it is done: 60 Sprague-Dawley rats of both sexes (3 lots of 20 animals each) were infected with an LD100 of pneumococ bacteria. Said LD100 was determined in 10^6C.F.U. and was given to the rats through tracheal cannula. The death of the animals occurred at the 3rd-4th day. The observation period lasted 8 days.
The obtained results are reported in the fol lowing Table I and are expressed as per cent mortalities over the controls.
Both the dead and the survived animals underwent a hystological examination of the main organs, namely lungs, liver, kidneys, heart and brain.

The next data set deals with S. pyogenes. Nature of the data set: Antibacterial in vitro activity (M.I.C.). The class given is cell-based. Particulars: micrograms of substance per ml of bacterial suspension. The method, then: (§3) The M.I.C.s were determined against three pathogenic bacterial strains, and are expressed as micrograms of substance per ml of bacterial suspension […].
A further data set deals with S. aureus. Kind of data set: Antibacterial in vitro activity (M.I.C.). The class given is cell-based. Particulars: micrograms of substance per ml of bacterial suspension. How it is done:
as §3

The next data set relates to H. influenzae. Kind of data set: Antibacterial in vitro activity (M.I.C.). It counts as cell-based. The settings on record: micrograms of substance per ml of bacterial suspension. The method, then: as §3
For a further data set, the system named is St Albus ATCC 12228. Nature of the data set: Phagocytosis test on phagocytes of treated patients. Particulars: patients with chronical bronchitis, erythromycin 1 gram and/or inosine 182 mg. The class given is in vivo. The method, then:
as §1
2 Ml of a phagocytes suspension (10^6 phagocy- tes/ml) was mixed up in a sterile test tube with 2 ml of St Albus ATCC 12228 (10^6 microorganisms/ ml) suspended in Gelatine "Hanks-solution" with 10% AB serum and 0.4 ml of AB serum.
The mixture was then incubated at 37 degrees C under continuous stirring. 2 Ml of St Albus ATCC 12228 suspended in gelatine "Hanks-solution" with 10% of AB serum (10^6 microorganisms/ml) were mixed up in another sterile test tube with 2.04 ml of Gelatine "Hanks-solution" and incubated under the same conditions described above.
At regular time intervals (0-30 min.-60 min.-90 min.) aliquots of the suspension corresponding to 0.5 ml were added to 1.5 Ml of Gelatine "Hanks-so lution" previously cooled to 4 degrees in order to stop the phagocytosis process.
The samples were then centrifuged for 4 min. at 110 r.p.m. in order to obtain the complete sedimen tation of the leucocytes, while the upper phase consisted of a suspension containing the bacteria (supernatant).
The supernatant liquid was then diluted with a
sterile saline solution (Bacto-haemogglutination Soerensen buffer) at a 1:10 ratio, in order to be sure that at least the last dilution contained a number of living bacteria ranging between 100 and 1000/ml.
Aliquots of 0.1 ml of bacterial suspension were then taken from the […] dilutions and both of them were pipetted on a plate containing Diagnostic Sensitive Test Agar (Oxoid) and immedia tely distributed on the whole surface with a sterile spatula.
The plates were incubated at 37 degrees C for 24 h and the number of colonies was then determined with a colony counter.
The same procedure was followed after having withdrawn aliquots of 0.5 ml of bacterial suspension from the test tube.
Phagocytosis, as a function of time, was determined in vitro and can be expressed as the reduction percent of the number of living bacteria deter mined at the beginning of the experiment (No). [formula]
F(t) is the phagocytosis index after t min., while Nt is the number of living bacteria after t min.
as §2

Data set [1] is described as follows: Acute toxicity after oral administration. Particulars: in vivo, rat.
Where [2] appears, read: 0 hours (moment of administration).
[3] abbreviates: 0 hours (moment of administration), reduction percent of living bacteria.

Values after ≈ are worked out from the molar mass of the structure shown. Structures can show the parent of a compound that is named as a salt.

Turning to “salt of erythromycin propionate with inosine-5-phosphoric acid in the molar ratio 2:1 [F.F.001]”, the NK-test in the data set with K562 (setting [2]) is 4.9-21.7; in the data set with K562 (2 hours after administration), 45.8-68; with K562 (4 hours after administration) it was 47.3-70.1; in the data set on K562 (6 hours after administration), 48.0-71.1; in the data set with K562 (8 hours after administration) it was 50.2-74.2; in the data set on K562 (24 hours after administration) it was 4.9-21.7. In the data set with pneumococ bacteria, this compound had a Mortality of 0%. The “minimum inhibiting concentration (M.I.C.)” value in the data set with S. pyogenes is on record as 0.036 ℓ/ml; in the data set with S. aureus, 0.31 ℓ/ml; in the data set with H. influenzae, 0.31 ℓ/ml. Moreover, the phagocytosis was 5-20 in the data set with St Albus ATCC 12228 (setting [3]); 16-62 in the data set with St Albus ATCC 12228 (2 hours after administration); 16-62 with St Albus ATCC 12228 (4 hours after administration); 16-62 in the data set on St Albus ATCC 12228 (6 hours after administration); 34-82 in the data set with St Albus ATCC 12228 (8 hours after administration); 5-20 with St Albus ATCC 12228 (24 hours after administration).
In the case of `CCOC(=O)CCC(=O)O[C@H]1[C@H](O[C@@H]2[C@@H](C)[C@H](O[C@H]3C[C@@](C)(OC)[C@@H](O)[C@H](C)O3)[C@@H](C)C(=O)O[C@H](CC)[C@@](C)(O)[C@H](O)[C@@H](C)C(=O)[C@H](C)C[C@@]2(C)O)O[C@H](C)C[C@@H]1N(C)C` [F.F.002, salt of erythromycin ethylsuccinate with inosine-5-phosphoric acid in the molar ratio 2:1], the NK-test in the data set with K562 (setting [2]) was 5.2-17.8; with K562 (2 hours after administration) it was 44.9-68.2; with K562 (4 hours after administration), 46.1-69.8; in the data set on K562 (6 hours after administration) it was 50.1-71.8; with K562 (8 hours after administration), 52.9-76.1; in the data set on K562 (24 hours after administration), 5.2-17.8. Further, the phagocytosis is 5-20 with St Albus ATCC 12228 (setting [3]); 16-62 in the data set on St Albus ATCC 12228 (2 hours after administration); 16-62 in the data set with St Albus ATCC 12228 (4 hours after administration); 16-62 in the data set on St Albus ATCC 12228 (6 hours after administration); 34-82 in the data set with St Albus ATCC 12228 (8 hours after administration); 5-20 in the data set with St Albus ATCC 12228 (24 hours after administration).
For `OC[C@H]1O[C@@H](n2cnc3c(O)ncnc32)[C@H](O)[C@@H]1O` [Inosine, inosine], the NK-test is 4.5-19.0 with K562 (setting [2]); 10.0-56.5 in the data set on K562 (2 hours after administration); 4.5-19.0 in the data set with K562 (4 hours after administration); 4.5-19.0 in the data set with K562 (6 hours after administration); 4.5-19.0 in the data set on K562 (8 hours after administration); 4.5-19.0 with K562 (24 hours after administration). Further, the phagocytosis was 5-19 in the data set with St Albus ATCC 12228 (setting [3]); 10-50 with St Albus ATCC 12228 (2 hours after administration); 5-19 in the data set with St Albus ATCC 12228 (4 hours after administration); 5-19 with St Albus ATCC 12228 (6 hours after administration); 5-19 with St Albus ATCC 12228 (8 hours after administration); 5-19 in the data set with St Albus ATCC 12228 (24 hours after administration).
As for `CCC(=O)O[C@H]1[C@H](O[C@@H]2[C@@H](C)[C@H](O[C@H]3C[C@@](C)(OC)[C@@H](O)[C@H](C)O3)[C@@H](C)C(=O)O[C@H](CC)[C@@](C)(O)[C@H](O)[C@@H](C)C(=O)[C@H](C)C[C@@]2(C)O)O[C@H](C)C[C@@H]1N(C)C` [Er. prop., erythromycin propionate], the Mortality in the data set on pneumococ bacteria is on record as 5%. The MIC in the data set on S. pyogenes (Streptococcus pyogenes, read-out: minimum inhibiting concentration (M.I.C.)) turned out to be 0.04 µg/mL (≈ 0.0506 µM); in the data set on S. aureus (Staphylococcus aureus, read-out: minimum inhibiting concentration (M.I.C.)), 0.35 µg/mL (≈ 0.443 µM); in the data set on H. influenzae (Haemophilus influenzae, read-out: minimum inhibiting concentration (M.I.C.)) it was 0.31 µg/mL (≈ 0.392 µM).
In the case of `CC[C@H]1OC(=O)[C@H](C)[C@@H](O[C@H]2C[C@@](C)(OC)[C@@H](O)[C@H](C)O2)[C@H](C)[C@@H](O[C@@H]2O[C@H](C)C[C@H](N(C)C)[C@H]2O)[C@](C)(O)C[C@@H](C)C(=O)[C@H](C)[C@@H](O)[C@]1(C)O` [Erythromycin, erythromycin], the NK-test is recorded as 7.4-23.0 with K562 (setting [2]); 7.4-23.0 in the data set with K562 (2 hours after administration); 7.4-23.0 in the data set on K562 (4 hours after administration); 7.4-23.0 with K562 (6 hours after administration); 45.3-67.8 in the data set on K562 (8 hours after administration); 7.4-23.0 in the data set on K562 (24 hours after administration). Moreover, in the data set with pneumococ bacteria, the Mortality is recorded as 5%. In addition, in data set [1], the median lethal dose (LD50) is more than 6000 mg/kg. Further, the phagocytosis was 8-24 in the data set on St Albus ATCC 12228 (setting [3]); 8-24 in the data set on St Albus ATCC 12228 (2 hours after administration); 8-24 in the data set on St Albus ATCC 12228 (4 hours after administration); 8-24 in the data set on St Albus ATCC 12228 (6 hours after administration); 31-60 in the data set on St Albus ATCC 12228 (8 hours after administration); 8-24 in the data set with St Albus ATCC 12228 (24 hours after administration).

The values above are taken from patent EP0139891A2, “Pharmaceutical compositions with antibiotic-immunostimulating activity” (B.T.B. INDUSTRIA CHIMICA S.p.A., priority 1983, dated 1985).
